Counter-ions that a name gives are not always drawn. Residues, ends and D or L forms follow the SMILES beside them. *: point of attachment. Cbz = O=C(OCc1ccccc1)*
Key:
Assay type in all cases: biochemical
[1] = target: T1, urinary angiotensin-converting enzyme (uACE) (Homo sapiens, UniProt P12821); experiment: Fluorescent kinetic uACE activity assay with ACE-specific inhibitors and inhibitors of other proteases (sensitivity testing); details: for effect on measured uACE activity: peptidase inhibitors, inhibitor-free 10 kDa retentate
T1 construct: from tissue; host or cells: human urine (native, or retentate of 10 kDa / 30 kDa Vivaspin 20 membrane filters)

[2] = target: T1, urinary angiotensin-converting enzyme (uACE); experiment: Fluorescent kinetic ACE activity assay on inhibitor-free ACE purified from urine (30 kDa retentate) with potential endogenous inhibitors; details: for uACE inhibition within reference (physiological) urinary concentration range: ACE purified from urine, physiological concentration range of the molecule in urine; for IC50: ACE purified from urine (30 kDa retentate), two-phase decay fit
Description: (§1) ACE activity was measured using the optimized fluorescent kinetic method previously reported by our group with different sample dilutions for each experiment.
In the final dilutional protocol, the reaction mixture contained 100 mM tris(hydroxymethyl)aminomethane hydrochloride (TRIS) buffer (pH 7.0), 15 μM Abz-FRK(Dnp)P-OH substrate (synthesized by Peptide 2.0, Chantilly, VA, USA), 50 mM NaCl, 10 μM ZnCl2, and urine at 64-fold and 128-fold final dilutions. […] Continuous recording of fluorescent intensity change was performed for 90 min with 1-min measurement intervals at 37 °C. Data points between 20 min and 80 min were used for analysis. When activity measured at 64-fold dilution exceeded that measured at 128-fold, the 64-fold results were used to avoid over-dilution bias of dilute urine samples.
Inhibitor-free ACE pre-purified on a 30 kDa Vivaspin 20 membrane filter column was used to identify inhibitors. Potential inhibitors were dissolved according to factory instructions (Urea: Cat. No.: U6504-1KG; Sigma-Aldrich, St. Louis, MO, USA; Uric acid: Cat. No.: U2625-25G; Sigma-Aldrich, St. Louis, MO, USA; Urobilinogen: Cat. No: 651-10; Lee Biosolutions, Maryland Heights, MO, USA). In the corresponding experiments, uACE with activities ranging from 0.15 to 0.53 U/L was applied. The obtained curves were fitted using the ‘two-phase decay’ equation in GraphPad Prism software, version 9 (GraphPad Software Inc., San Diego, CA, USA).

serum ACE = target: T2, serum ACE (Homo sapiens, UniProt P12821); experiment: Serum ACE activity in the presence of phosphoramidon; details: compared with effect on uACE
T2 construct: from tissue; host or cells: serum
Description: as §1

T1 sequence (P12821 30-1232 limits assumed): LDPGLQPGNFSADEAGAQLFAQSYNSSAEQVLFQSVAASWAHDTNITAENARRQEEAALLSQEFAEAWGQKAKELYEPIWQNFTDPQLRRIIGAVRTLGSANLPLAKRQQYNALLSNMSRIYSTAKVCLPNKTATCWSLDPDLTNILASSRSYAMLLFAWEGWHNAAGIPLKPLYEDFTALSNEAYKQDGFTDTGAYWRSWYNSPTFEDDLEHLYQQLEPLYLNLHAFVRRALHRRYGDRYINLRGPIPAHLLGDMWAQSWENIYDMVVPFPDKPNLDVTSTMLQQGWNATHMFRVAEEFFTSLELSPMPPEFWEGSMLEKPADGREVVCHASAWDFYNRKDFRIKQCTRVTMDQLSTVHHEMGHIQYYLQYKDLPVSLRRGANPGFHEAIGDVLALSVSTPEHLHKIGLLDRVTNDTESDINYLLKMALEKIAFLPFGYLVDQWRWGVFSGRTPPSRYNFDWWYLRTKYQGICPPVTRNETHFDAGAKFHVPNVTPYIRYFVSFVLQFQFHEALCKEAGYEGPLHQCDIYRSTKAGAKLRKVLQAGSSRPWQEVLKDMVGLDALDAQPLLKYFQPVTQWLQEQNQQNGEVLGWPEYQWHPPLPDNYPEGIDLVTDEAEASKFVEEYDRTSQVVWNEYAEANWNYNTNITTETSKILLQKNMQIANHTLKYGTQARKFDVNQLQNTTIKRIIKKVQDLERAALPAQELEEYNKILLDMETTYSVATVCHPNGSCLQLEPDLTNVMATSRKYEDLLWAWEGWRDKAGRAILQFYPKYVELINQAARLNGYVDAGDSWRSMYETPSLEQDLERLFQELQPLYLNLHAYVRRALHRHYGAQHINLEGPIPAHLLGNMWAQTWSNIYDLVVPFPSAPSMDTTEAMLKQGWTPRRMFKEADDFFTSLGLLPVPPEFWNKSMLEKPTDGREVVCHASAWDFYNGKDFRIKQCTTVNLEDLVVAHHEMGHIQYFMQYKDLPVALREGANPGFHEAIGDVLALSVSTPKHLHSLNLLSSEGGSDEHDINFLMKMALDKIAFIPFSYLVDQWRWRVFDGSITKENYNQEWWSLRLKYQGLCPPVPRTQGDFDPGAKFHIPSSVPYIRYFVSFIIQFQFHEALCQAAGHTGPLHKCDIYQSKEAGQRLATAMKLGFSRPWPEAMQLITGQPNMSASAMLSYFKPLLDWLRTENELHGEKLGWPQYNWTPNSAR
T2 sequence (P12821 30-1232 limits assumed): as above

Row | SMILES | effect on measured uACE activity [1] | uACE inhibition within reference (physiological) urinary concentration range [2] | other results
1 | CC(C)C[C@@H](N)[C@H](O)C(=O)N[C@H](C(=O)N[C@H](C(=O)N[C@@H](CC(=O)O)C(=O)O)C(C)C)C(C)C.Cl [Amastatin hydrochloride] | had no effect |  | 
2 | CC(C)C[C@H](N[C@@H](Cc1cncn1Cc1cc(Cl)cc(Cl)c1)C(=O)O)C(=O)O [MLN-4760] | had no effect |  | 
3 | NC(N)=O [Urea] |  | 10–25% | 
4 | O=c1[nH]c(=O)c2[nH]c(=O)[nH]c2[nH]1 [Uric acid] |  | 30–50% | IC50 [2]: 3610 µM
5 | CCC1=C(C)C(Cc2[nH]c(Cc3[nH]c(CC4NC(=O)C(C)=C4CC)c(C)c3CCC(=O)O)c(CCC(=O)O)c2C)NC1=O (stereo not drawn) [Urobilinogen] |  | 3–20% | IC50 [2]: 298 µM; IC50 ([2]; listed as urobilinogen): 298 µM
6 | O=C[C@@H]1CCCN1C(=O)[C@@H]1CCCN1C(=O)OCc1ccccc1 [Z-prolyl-prolinal] (Cbz-Pro-Pro-aldehyde) | no detectable effect |  | 
7 | C[C@H](NC(=O)[C@@H]1CCCN1C(=O)[C@@H]1CCCN1C(=O)[C@@H](O)[C@H](N)Cc1ccccc1)C(N)=O [apstatin, Apstatin] | did not alter uACE activity |  | 
8 | CC(C)C[C@H](NC(=O)[C@@H](O)[C@H](N)Cc1ccccc1)C(=O)O [bestatin hydrochloride, Bestatin hydrochloride] | did not alter uACE activity |  | 
9 | NCCCC[C@H](N[C@@H](CCc1ccccc1)C(=O)O)C(=O)N1CCC[C@H]1C(=O)O [lisinopril] |  |  | inhibition of ACE activity in control reactions ([1]; 1 μM): completely inhibiting ACE activity; extent of uACE activity inhibition ([1]; ACE-inhibitor drugs, concentration series): completely inhibited
10 | CC(C)C[C@H](NP(=O)(O)O[C@@H]1O[C@@H](C)[C@H](O)[C@@H](O)[C@H]1O)C(=O)N[C@@H](Cc1c[nH]c2ccccc12)C(=O)O [phosphoramidon disodium salt, Phosphoramidon disodium salt] |  |  | reduction of uACE activity ([1]; 1 μM concentration): approximately 35%; effect on serum ACE activity (serum ACE): comparable inhibitory effect
